Assay results as given in patent US20230190704A1, “DRUG DELIVERY SYSTEM BASED ON CALCIUM PHOSPHATE NANOPARTICLES FUNCTIONALIZED WITH BIOACTIVE COMPOUNDS FROM EUPHORBIA EXTRACT AND THE USES THEREOF” (CELLBITEC, S.L., priority 2020, published 2023).
≈ marks a conversion by molar mass, not a printed value.

Legend:
[1] = tested on: T84 human colon adenocarcinoma cell line; test: Antiproliferative SRB assay of nanoparticles and isolated compounds in T84 cells; format: cell-based; settings: T84, isolated compound, 72 h
Procedure: The human colon adenocarcinoma cell line T84was purchased from the American Type Culture Collection (Rockville, MD, USA). The non-tumor colon cell line CCD18 (human colon epithelial cell line) was used as control. All cell lines were grown in Dulbecco’s Modified Eagle’s Medium (DMEM) supplemented with 10% heat-inactivated fetal bovine serum (FBS) and ATB (antibiotic, streptomycin + amphotericin B) at 1% and maintained in an incubator at 37° C. and 5% CO2 humidified atmosphere.
Cells were seeded in 48-well plates with DMEM (Dulbecco’s modified Eagles Medium) (300 ul) at a density of 4 x 10^3 cells/well in CCD18 and 5 x 10^3 cells/well in T84. After 24 hours, cell cultures were exposed 72 h to increasing concentrations of the nanoparticles dissolved in DMEM. In addition, bioactive components of the extract, Esculetin (range from 0.1 µg/ml to 5 µg/ml) and Euphorbetin (range from 0.02 µg/ml to 0.7 µg/ml), were combined at different concentration in order to determine their antitumor activity and to compare with nanoparticle activity and ethanolic extract activity. After incubation time, cells were fixed with trichloroacetic acid (TCA) at 10% for 20 minutes at 4° C. […] Finally, the optical density (OD) at 492 nm was measured in a spectrophotometer. Cell survival (%) was calculated according to the following equation: […]

[2] = tested on: 15 in vitro models with tumor cells; settings: 15 in vitro tumor cell models; read-out: inhibitory dose 50 (IC50); cited from earlier work

Structure (SMILES)	IC50 [1] [µg/mL]	IC50 [2] [µM]
O=c1ccc2cc(O)c(O)cc2o1 [Esculetin, esculetin]	0.27 (≈ 1.52 µM)	
CC(C)=CCC[C@@H](C)[C@@H]1CC[C@]2(C)C3=C(CC[C@@]12C)[C@@]1(C)CC[C@H](O)C(C)(C)[C@@H]1CC3 [Euphol]		2 to 30
